This test concerns the target T1, GCS enzyme contained within Golgi preparations isolated from human A375 malignant melanoma skin cells (Homo sapiens, UniProt Q16739).
T1 construct: endogenous levels of GCS enzyme contained within Golgi preparations isolated from human A375 malignant melanoma skin cells; endogenous in cells; host or cells: A375 human malignant melanoma cells (crude Golgi preparation)
T1 sequence (Q16739 1-394): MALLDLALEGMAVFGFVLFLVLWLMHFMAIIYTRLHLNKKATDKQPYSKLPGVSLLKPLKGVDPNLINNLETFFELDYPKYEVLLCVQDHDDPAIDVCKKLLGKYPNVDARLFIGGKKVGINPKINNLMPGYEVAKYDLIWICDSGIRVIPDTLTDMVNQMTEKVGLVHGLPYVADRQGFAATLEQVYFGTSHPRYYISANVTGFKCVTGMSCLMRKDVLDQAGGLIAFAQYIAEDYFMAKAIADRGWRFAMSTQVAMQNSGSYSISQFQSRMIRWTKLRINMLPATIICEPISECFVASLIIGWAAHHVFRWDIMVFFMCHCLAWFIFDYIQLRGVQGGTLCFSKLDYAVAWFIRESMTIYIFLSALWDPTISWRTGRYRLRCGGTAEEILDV
Kind of test: UDP-Glo glucosylceramide synthase biochemical assay. The conditions noted are these: crude Golgi preparation from A375 cells; C6 ceramide and UDP-glucose substrates; 20 h incubation at room temperature; UDP detected by luminescence. Put shortly: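 Endogenous enzyme in A375 Golgi preparations (1.5 μg total protein) was preincubated 30 min with compound, then reacted 20 h at room temperature with UDP-glucose and ceramide.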

This note sets out measurements from patent US12679807B2 (MERCK SHARP & DOHME LLC, priority 2020, dated 2026).

Broadly, the EC50 is the concentration at which the effect is half-maximal. Read a high EC50 as a need for much substance.

`CC(C)(O)[C@@H](C1CC1)N1Cc2cccc(-c3ccc(-n4ccnn4)cc3)c2C1=O` [Compound 69, (R)-7-(4-(1H-1,2,3-triazol-1-yl)phenyl)-2-(1-cyclopropyl-2-hydroxy-2-methylpropyl)isoindolin-1-one]: the response was half-maximal at 110 nM (EC50).

In the case of `Cc1nnc(-c2cc(F)c(-c3cccc4c3C(=O)N([C@H](C3CC3)C(C)(C)O)C4)cc2C)o1` [Compound 70, (R)-2-(1-cyclopropyl-2-hydroxy-2-methylpropyl)-7-(2-fluoro-5-methyl-4-(5-methyl-1,3,4-oxadiazol-2-yl)phenyl)isoindolin-1-one], a half-maximal response (EC50) required 0.81 nM. This EC50 lies about 140-fold lower than the previous one. In the case of `Cc1nnc(-c2ccc(-c3cccc4c3C(=O)N([C@H](C3CC3)C(C)(C)O)C4)cc2C)o1` [Compound 71, (R)-2-(1-cyclopropy1-2-hydroxy-2-methylpropyl)-7-(3-methyl-4-(5-methyl-1,3,4-oxadiazol-2-yl)phenyl)isoindolin-1-one] it was 0.84 nM; in that of `Cc1nnc(-c2ccc(-c3cccc4c3C(=O)N([C@H](C3CC3)C(C)(C)O)C4)c(F)c2C)o1` [Compound 72, (R)-2-(1-cyclopropyl-2-hydroxy-2-methylpropyl)-7-(2-fluoro-3-methyl-4-(5-methyl-1,3,4-oxadiazol-2-yl)phenyl)isoindolin-1-one], 0.59 nM; in that of `CC(C)(O)[C@@H](C1CC1)N1Cc2cccc(-c3cccnc3OCC(F)(F)F)c2C1=O` [Compound 73, (R)-2-(1-cyclopropyl-2-hydroxy-2-methylpropyl)-7-(2-(2,2,2-trifluoroethoxy)pyridin-3-yl)isoindolin-1-one], 55 nM.

`CN1Cc2cc(-c3cccc4c3C(=O)N([C@H](C3CC3)C(C)(C)O)C4)ccc2CC1=O` [Compound 74, (R)-7-(2-(1-cyclopropyl-2-hydroxy-2-methylpropyl)-3-oxoisoindolin-4-yl)-2-methyl-1,4-dihydroisoquinolin-3(2H)-one]: the EC50 worked out at 40 nM. In the case of `COc1cnc2cc(-c3cccc4c3C(=O)N([C@H](C3CC3)C(C)(C)O)C4)ccc2n1` [Compound 75, (R)-2-(1-cyclopropyl-2-hydroxy-2-methylpropyl)-7-(2-methoxyquinoxalin-6-yl)isoindolin-1-one] it was 8.8 nM; in that of `CCc1nnc(-c2ccc(-c3cccc4c3C(=O)N([C@H](C3CC3)C(C)(C)O)C4)cc2)o1` [Compound 76, (R)-2-(1-cyclopropyl-2-hydroxy-2-methylpropyl)-7-(4-(5-ethyl-1,3,4-oxadiazol-2-yl)phenyl)isoindolin-1-one], 26 nM.

As for `CC(C)(O)[C@@H](C1CC1)N1Cc2cccc(-c3ccc(-c4ncco4)cc3)c2C1=O` [Compound 77, (R)-2-(1-cyclopropyl-2-hydroxy-2-methylpropyl)-7-(4-(oxazol-2-yl)phenyl)isoindolin-1-one], the EC50 came out at 39 nM. In the case of `Cc1noc(-c2ccc(-c3cccc4c3C(=O)N([C@H](C3CC3)C(C)(C)O)C4)cc2)n1` [Compound 78, (R)-2-(1-cyclopropyl-2-hydroxy-2-methylpropyl)-7-(4-(3-methyl-1,2,4-oxadiazol-5-yl)phenyl)isoindolin-1-one] it was 59 nM. In the case of `Cn1nc(-c2cccc3c2C(=O)N([C@H](C2CC2)C(C)(C)O)C3)c2ccccc21` [Compound 79, (R)-2-(1-cyclopropyl-2-hydroxy-2-methylpropyl)-7-(1-methyl-1H-indazol-3-yl)isoindolin-1-one] it was 2.1 nM; in that of `Cn1nc(C(F)(F)F)c2cc(-c3cccc4c3C(=O)N([C@H](C3CC3)C(C)(C)O)C4)ccc21` [Compound 80, (R)-2-(1-cyclopropyl-2-hydroxy-2-methylpropyl)-7-(1-methyl-3-(trifluoromethyl)-1H-indazol-5-yl)isoindolin-1-one], 0.39 nM; in that of `Cc1nc(-c2cccc(-c3cccc4c3C(=O)N([C@H](C3CC3)C(C)(C)O)C4)c2)no1` [Compound 81, (R)-2-(1-cyclopropyl-2-hydroxy-2-methylpropyl)-7-(3-(5-methyl-1,2,4-oxadiazol-3-yl)phenyl)isoindolin-1-one], 31 nM. In the case of `CC(C)(O)[C@@H](C1CC1)N1Cc2cccc(-c3cccc(-c4ncon4)c3)c2C1=O` [Compound 82, (R)-7-(3-(1,2,4-oxadiazol-3-yl)phenyl)-2-(1-cyclopropyl-2-hydroxy-2-methylpropyl)isoindolin-1-one] it was 46 nM; in that of `CC(C)(O)[C@@H](C1CC1)N1Cc2cccc(-c3ccc(-c4ncon4)cc3)c2C1=O` [Compound 83, (R)-7-(4-(1,2,4-oxadiazol-3-yl)phenyl)-2-(1-cyclopropyl-2-hydroxy-2-methylpropyl)isoindolin-1-one], 100 nM. `CN1C(=O)Cc2ccc(-c3cccc4c3C(=O)N([C@H](C3CC3)C(C)(C)O)C4)cc21` [Compound 84, (R)-6-(2-(1-cyclopropyl-2-hydroxy-2-methylpropyl)-3-oxoisoindolin-4-yl)-1-methylindolin-2-one] gave a concentration giving a half-maximal response (EC50) of 4.8 nM. This EC50 is about 21-fold lower than that of the compound before. For the compound `CN1C(=O)Cc2cc(-c3cccc4c3C(=O)N([C@H](C3CC3)C(C)(C)O)C4)ccc21` [Compound 85, (R)-5-(2-(1-cyclopropyl-2-hydroxy-2-methylpropyl)-3-oxoisoindolin-4-yl)-1-methylindolin-2-one], a half-maximal effect (EC50) was put at 8.2 nM. In the case of `Cc1nn(C)c2ccc(-c3cccc4c3C(=O)N([C@H](C3CC3)C(C)(C)O)C4)cc12` [Compound 86, (R)-2-(1-cyclopropyl-2-hydroxy-2-methylpropyl)-7-(1,3-dimethyl-1H-indazol-5-yl)isoindolin-1-one] it was 0.58 nM; in that of `Cc1cc2c(cnn2C)cc1-c1cccc2c1C(=O)N([C@H](C1CC1)C(C)(C)O)C2` [Compound 87, (R)-2-(1-cyclopropyl-2-hydroxy-2-methylpropyl)-7-(1,6-dimethyl-1H-indazol-5-yl)isoindolin-1-one], 9.5 nM; in that of `Cc1nc(-c2ccc(-c3cccc4c3C(=O)N([C@H](C3CC3)C(C)(C)O)C4)cc2)no1` [Compound 88, (R)-2-(1-cyclopropyl-2-hydroxy-2-methylpropyl)-7-(4-(5-methyl-1,2,4-oxadiazol-3-yl)phenyl)isoindolin-1-one], 90 nM. In the case of `CC(C)(O)[C@@H](C1CC1)N1Cc2cccc(-c3cnn(-c4ccncc4)c3)c2C1=O` [Compound 89, (R)-2-(1-cyclopropyl-2-hydroxy-2-methylpropyl)-7-(1-(pyridin-4-yl)-1H-pyrazol-4-yl)isoindolin-1-one] it was 420 nM; in that of `Cc1cc(-c2ccc(-c3cccc4c3C(=O)N([C@H](C3CC3)C(C)(C)O)C4)cc2)on1` [Compound 90, (R)-2-(1-cyclopropyl-2-hydroxy-2-methylpropyl)-7-(4-(3-methylisoxazol-5-yl)phenyl)isoindolin-1-one], 2 nM.

`Cc1ncc(-c2ccc(-c3cccc4c3C(=O)N([C@H](C3CC3)C(C)(C)O)C4)cc2)o1` [Compound 91, 2-[(1R)-1-cyclopropyl-2-hydroxy-2-methyl-propyl]-7-[4-(2-methyloxazol-5-yl)phenyl]isoindolin-1-one] showed an EC50 of 520 nM. In the case of `CC(C)(O)[C@@H](C1CC1)N1Cc2cccc(-c3cc(Cl)cc(C#N)n3)c2C1=O` [Compound 92, 4-chloro-6-[2-[(1R)-1-cyclopropyl-2-hydroxy-2-methyl-propyl]-3-oxo-isoindolin-4-yl]pyridine-2-carbonitrile] it was 33 nM; in that of `COc1cc(Cl)nc(-c2cccc3c2C(=O)N([C@H](C2CC2)C(C)(C)O)C3)c1` [Compound 93, (R)-7-(6-chloro-4-methoxypyridin-2-yl)-2-(1-cyclopropyl-2-hydroxy-2-methylpropyl)isoindolin-1-one], 55 nM; in that of `Cn1cc(-c2ccc(-c3cccc4c3C(=O)N([C@H](C3CC3)C(C)(C)O)C4)cc2)nn1` [Compound 94, 2-[(1R)-1-cyclopropyl-2-hydroxy-2-methyl-propyl]-7-[4-(1-methyltriazol-4-yl)phenyl]isoindolin-1-one], 24 nM.

For the compound `CC(C)(O)[C@@H](C1CC1)N1Cc2cccc(-c3ccc(-c4cnsc4)cc3)c2C1=O` [Compound 95, (R)-2-(1-cyclopropyl-2-hydroxy-2-methylpropyl)-7-(4-(isothiazol-4-yl)phenyl)isoindolin-1-one], the EC50 was 83 nM.

Turning to `Cc1c(CO)noc1-c1ccc(-c2cccc3c2C(=O)N([C@H](C2CC2)C(C)(C)O)C3)cc1` [Compound 96, 2-[(1R)-1-cyclopropyl-2-hydroxy-2-methyl-propyl]-7-[4-[3-(hydroxymethyl)-4-methyl-isoxazol-5-yl]phenyl]isoindolin-1-one], the EC50 is 1.4 nM.

In the case of `COc1cc(C#N)nc(-c2cccc3c2C(=O)N([C@H](C2CC2)C(C)(C)O)C3)c1` [Compound 97, (R)-6-(2-(1-cyclopropyl-2-hydroxy-2-methylpropyl)-3-oxoisoindolin-4-yl)-4-methoxypicolinonitrile], the EC50 stood at 12 nM. `CCOc1ccccc1C(=O)Nc1cccc2c1C(=O)N(C(C1CC1)C1CC1)C2` [Compound 98, N-(2-(Dicyclopropylmethyl)-3-oxoisoindolin-4-yl)-2-ethoxybenzamide] had an EC50 of 43 nM. As to `CCOc1ccccc1C(=O)Nc1cccc2c1C(=O)N([C@H](C)C(C)(C)O)C2` [Compound 99, (R)-2-Ethoxy-N-(2-(3-hydroxy-3-methylbutan-2-yl)-3-oxoisoindolin-4-yl)benzamide], the EC50 was determined as 140 nM.
